Drawing on US20100272680A1, “Piperidinyl Cyclic Amido Antiviral Agents” (priority 2009, published 2010), this text covers EC50 for 17 compounds.

One assay concerns HCV Genotype 1B Replicon. Nature of the assay: Replicon assay, genotype 1b subgenomic replicon (ET cell line), luciferase readout. The format is cell-based. The note with it: Hepatitis C virus, 48 h, Table 3; luciferase activity after 48 hours. As for the experimental part: (§1) Compounds were assayed for activity against HCV using the genotype 1a and 1b subgenomic replicon model systems. Stable cell lines bearing the genotype 1a and 1b replicons were used for screening of compounds. Both replicons are bicistonic and contain the firefly luciferase gene. The ET cell line is stably transfected with RNA transcripts harboring a I389luc-ubi-neo/NS3-3′/ET replicon with firefly luciferase-ubiquitin-neomycin phosphotransferase fusion protein and EMCV-IRES driven NS3-5B polyprotein containing the cell culture adaptive mutations (E1202G; T12801; K1846T) (Krieger at al, 2001 and unpublished). The genotype 1a replicon is a stable cell line licensed from Apath LLC, modified to contain the firefly luciferase gene. The cells were grown in DMEM, supplemented with 10% fetal calf serum, 2 mM Glutamine, Penicillin (100 IU/mL)/Streptomycin (100 μg/mL), 1× nonessential amino acids, and 250-500 μg/mL G418 (“Geneticin”). They were all available through Life Technologies (Bethesda, Md.). The cells were plated at 0.5×10^4 cells/well in 384 well plates containing compounds. The final concentration of compounds ranged between 0.03 μM to 50 μm and the final DMSO concentration of 0.5-1%.
(§2) Luciferase activity was measured 48 hours later by adding a Steady glo (Promega, Madison, Wis.). Percent inhibition of replication data was plotted relative to no compound control. Under the same condition, cytotoxicity of the compounds was determined using cell titer glo (Promega, Madison, Wis). IC50s were determined from a 10 point dose response curve using 3-4-fold serial dilution for each compound, which spans a concentration range >1000 fold. BioAssay determines the level of inhibition for each compound by normalizing cross-talk corrected plate values against the negative […] controls to determine Percent Inhibition:
(§3) These normalized values are exported to EC50 where they are plotted against the molar compound concentrations using the standard four parameter logistic equation: […]
(§4) Some EC50 measurements were repeated a second time and for both 1A and 1B genotypes after those reported in Table 2 for compounds 101-108 and the repeated data was reported in Table 3.
On the technique in general: Replicon systems follow genome replication, usually without infectious particles.

The subject of the next assay is HCV Genotype 1A Replicon. Nature of the assay: Replicon assay, genotype 1a subgenomic replicon, luciferase readout. The format is cell-based. The note with it: Hepatitis C virus, 48 h, Table 3; luciferase activity after 48 hours. As to the method:
as §1, §2, §3, §4

`C[C@H]1C[C@@H](N2CCOC2=O)CCN1C(=O)c1nc2c(C(F)(F)F)cc(-c3ccoc3)cn2c1Cl` (racemic) [Compound 205, (±) cis-3-(1-{[3-chloro-6-(3-furanyl)-8-(trifluoromethyl)imidazo[1,2-a]pyridin-2-yl]carbonyl}-2-methyl-4-piperidinyl)-1,3-oxazolidin-2-one]: the EC50 (in general, the concentration needed to bring the measured effect to its halfway point) in the assay on HCV Genotype 1B Replicon came to 1760 nM; in the assay on HCV Genotype 1A Replicon, 1070 nM.

For the compound `C[C@@H]1C[C@@H](N2CCOC2=O)CCN1C(=O)c1nc2c(C(F)(F)F)cc(-c3ccoc3)cn2c1Cl` (racemic) [Compound 206, (±) trans-3-(1-{[3-chloro-6-(3-furanyl)-8-(trifluoromethyl)imidazo[1,2-a]pyridin-2-yl]carbonyl}-2-methyl-4-piperidinyl)-1,3-oxazolidin-2-one], the EC50 in the assay with HCV Genotype 1B Replicon is 140 nM; in the assay on HCV Genotype 1A Replicon it was 70 nM.

`O=C(c1nc2c(C(F)(F)F)cc(-c3ccoc3)cn2c1Cl)N1CC[C@@H](N2CCOC2=O)[C@H](O)C1` (racemic) [Compound 212, (±) trans-3-(1-{[3-chloro-6-(3-furanyl)-8-(trifluoromethyl)imidazo[1,2-a]pyridin-2-yl]carbonyl}-3-hydroxy-4-piperidinyl)-1,3-oxazolidin-2-one]: the EC50 in the assay with HCV Genotype 1B Replicon was 80 nM; in the assay on HCV Genotype 1A Replicon, 50 nM.

As for `CC(C)Cc1cc(C(F)(F)F)c2nc(C(=O)N3CC[C@H](N4CCOC4=O)[C@@H](O)C3)c(Cl)n2c1` (racemic) [Compound 215, (±) trans-3-(1-{[3-chloro-6-(2-methylpropyl)-8-(trifluoromethyl)imidazo[1,2-a]pyridin-2-yl]carbonyl}-3-hydroxy-4-piperidinyl)-1,3-oxazolidin-2-one], the results for the EC50 with HCV Genotype 1B Replicon and in the assay with HCV Genotype 1A Replicon were 350 nM and 90 nM, respectively.

With `O=C(c1nc2c(C(F)(F)F)cc(Br)cn2c1Cl)N1CC[C@H](N2CCOC2=O)[C@@H](O)C1` (racemic) [Compound 219, (±) trans-3-(1-{[6-bromo-3-chloro-8-(trifluoromethyl)imidazo[1,2-a]pyridin-2-yl]carbonyl}-3-hydroxy-4-piperidinyl)-1,3-oxazolidin-2-one], the EC50 turned out to be 580 nM in the assay on HCV Genotype 1B Replicon and 150 nM with HCV Genotype 1A Replicon.

As to `O=C(c1nc2c(C(F)(F)F)cc(Br)cn2c1Cl)N1CC[C@H](N2C(=O)COC2=O)[C@@H](O)C1` (racemic) [Compound 222, (±) trans-3-(1-{[6-bromo-3-chloro-8-(trifluoromethyl)imidazo[1,2-a]pyridin-2-yl]carbonyl}-3-hydroxy-4-piperidinyl)-1,3-oxazolidine-2,4-dione], the EC50 in the assay on HCV Genotype 1B Replicon is 20 nM; in the assay with HCV Genotype 1A Replicon it was 940 nM.

As to `O=C(c1nc2c(C(F)(F)F)cc(-c3ccoc3)cn2c1Cl)N1CC[C@H](N2C(=O)COC2=O)[C@@H](O)C1` (racemic) [Compound 223, (±) trans-3-(1-{[3-chloro-6-(3-furanyl)-8-(trifluoromethyl)imidazo[1,2-a]pyridin-2-yl]carbonyl}-3-hydroxy-4-piperidinyl)-1,3-oxazolidine-2,4-dione], the EC50 in the assay on HCV Genotype 1B Replicon is 810 nM; with HCV Genotype 1A Replicon, 1580 nM.

Consider `O=C(c1nc2c(C(F)(F)F)cc(C3CC3)cn2c1Cl)N1CC[C@H](N2C(=O)COC2=O)[C@@H](O)C1` (racemic) [Compound 224, (±) trans-3-(1-{[3-chloro-6-cyclopropyl-8-(trifluoromethyl)imidazo[1,2-a]pyridin-2-yl]carbonyl}-3-hydroxy-4-piperidinyl)-1,3-oxazolidine-2,4-dione], for which the EC50 in the assay with HCV Genotype 1B Replicon was 210 nM; with HCV Genotype 1A Replicon, 1430 nM.

As for `O=C(c1nc2c(C(F)(F)F)cc(C3CC3)cn2c1Cl)N1CC[C@H](N2CCCC2=O)[C@@H](O)C1` (racemic) [Compound 225, (±) trans-1-(1-{[3-chloro-6-cyclopropyl-8-(trifluoromethyl)imidazo[1,2-a]pyridin-2-yl]carbonyl}-3-hydroxy-4-piperidinyl)-2-pyrrolidinone], the results for the EC50 in the assay on HCV Genotype 1B Replicon and in the assay on HCV Genotype 1A Replicon were 150 nM and 480 nM, respectively.

As for `O=C(c1nc2c(C(F)(F)F)cc(Br)cn2c1Cl)N1CC[C@H](N2CCCC2=O)[C@@H](O)C1` (racemic) [Compound 226, (±) trans-1-(1-{[6-bromo-3-chloro-8-(trifluoromethyl)imidazo[1,2-a]pyridin-2-yl]carbonyl}-3-hydroxy-4-piperidinyl)-2-pyrrolidinone], the EC50 in the assay on HCV Genotype 1B Replicon came to 1450 nM; in the assay with HCV Genotype 1A Replicon, 2260 nM.

In the case of `O=C(c1nc2c(C(F)(F)F)cc(-c3ccoc3)cn2c1Cl)N1CC[C@H](N2CCCC2=O)[C@@H](O)C1` (racemic) [Compound 227, (±) trans-1-(1-{[3-chloro-6-(3-furanyl)-8-(trifluoromethyl)imidazo[1,2-a]pyridin-2-yl]carbonyl}-3-hydroxy-4-piperidinyl)-2-pyrrolidinone], the EC50 was determined as 340 nM with HCV Genotype 1B Replicon and 690 nM in the assay on HCV Genotype 1A Replicon.

Take `O=C(c1nc2c(C(F)(F)F)cc(C3CC3)cn2c1Cl)N1CC[C@H](N2CCCC2=O)[C@H](O)C1` (racemic) [Compound 228, (±) cis-1-(1-{[3-chloro-6-cyclopropyl-8-(trifluoromethyl)imidazo[1,2-a]pyridin-2-yl]carbonyl}-3-hydroxy-4-piperidinyl)-2-pyrrolidinone]: the EC50 with HCV Genotype 1B Replicon came to 90 nM; with HCV Genotype 1A Replicon, 250 nM.

`O=C(c1nc2c(C(F)(F)F)cc(Br)cn2c1Cl)N1CC[C@H](N2CCCC2=O)[C@H](O)C1` (racemic) [Compound 229, (±) cis-1-(1-{[6-bromo-3-chloro-8-(trifluoromethyl)imidazo[1,2-a]pyridin-2-yl]carbonyl}-3-hydroxy-4-piperidinyl)-2-pyrrolidinone]: the EC50 with HCV Genotype 1B Replicon was determined as 350 nM; with HCV Genotype 1A Replicon, 960 nM.

For the compound `O=C(c1nc2c(C(F)(F)F)cc(-c3ccoc3)cn2c1Cl)N1CC[C@H](N2CCCC2=O)[C@H](O)C1` (racemic) [Compound 230, (±) cis-1-(1-{[3-chloro-6-(3-furanyl)-8-(trifluoromethyl)imidazo[1,2-a]pyridin-2-yl]carbonyl}-3-hydroxy-4-piperidinyl)-2-pyrrolidinone], the EC50 in the assay with HCV Genotype 1B Replicon came to 180 nM; in the assay on HCV Genotype 1A Replicon it was 420 nM.

Take `O=C(c1nc2c(C(F)(F)F)cc(C3CC3)cn2c1Cl)N1CC[C@H](N2CCOC2=O)[C@H](O)C1` (racemic) [Compound 231, (±) cis-3-(1-{[3-chloro-6-cyclopropyl-8-(trifluoromethyl)imidazo[1,2-a]pyridin-2-yl]carbonyl}-3-hydroxy-4-piperidinyl)-1,3-oxazolidin-2-one]: the half-maximal effective concentration (EC50) in the assay with HCV Genotype 1B Replicon stood at 30 nM; in the assay with HCV Genotype 1A Replicon, 20 nM.

Take `O=C(c1nc2c(C(F)(F)F)cc(Br)cn2c1Cl)N1CC[C@H](N2CCOC2=O)[C@H](O)C1` (racemic) [Compound 233, (±) cis-3-(1-{[6-bromo-3-chloro-8-(trifluoromethyl)imidazo[1,2-a]pyridin-2-yl]carbonyl}-3-hydroxy-4-piperidinyl)-1,3-oxazolidin-2-one]: the EC50 in the assay on HCV Genotype 1B Replicon was 180 nM; with HCV Genotype 1A Replicon, 110 nM.

On to `O=C(c1nc2c(C(F)(F)F)cc(C3CC3)cn2c1Cl)N1CC[C@H](N2CCOC2=O)[C@H](O)C1` (single isomer, unassigned; enantiomer 1) [Compound 234, 3-((cis)-1-{[3-chloro-6-cyclopropyl-8-(trifluoromethyl)imidazo[1,2-a]pyridin-2-yl]carbonyl}-3-hydroxy-4-piperidinyl)-1,3-oxazolidin-2-one (Enantiomer 1)], for which a half-maximal response with HCV Genotype 1B Replicon (EC50) required 50 nM.
